Where “and” joins values, the source holds several entries; their conditions need not be identical. Equal values may be shown once. Toxic doses and inconclusive results are not listed. How the source made its calls: active means survival T/C of 150% or more; inactive means T/C below 125% in these data.
Tested on: CD2F1 mice, L1210 leukemia ip, survival T/C
Assay: NCI In Vivo Anticancer Drug Screen. Data for tumor model L1210 Leukemia (intraperitoneal) in CD2F1 (CDF1) mice
Conditions: higher = longer survival
Method in brief: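 Activity against a transplanted murine tumor was judged by comparing the compound group with a vehicle group. The outcome in the treated animals was divided by that in the controls.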

[1] = endpoint: mean survival time, dose: 25.0 mg/kg/injection, schedule: Q01DX009 (ip), vehicle: saline with Tween-80
[2] = endpoint: mean survival time, dose: 50.0 mg/kg/injection, schedule: Q01DX009 (ip), vehicle: saline with Tween-80
[3] = endpoint: mean survival time, dose: 100.0 mg/kg/injection, schedule: Q01DX009 (ip), vehicle: saline with Tween-80
[4] = endpoint: mean survival time, dose: 100.0 mg/kg/injection, schedule: Q04DX003 (ip), vehicle: saline with Tween-80
[5] = endpoint: mean survival time, dose: 200.0 mg/kg/injection, schedule: Q04DX003 (ip), vehicle: saline with Tween-80
[6] = endpoint: mean survival time, dose: 200.0 mg/kg/injection, schedule: Q01DX009 (ip), vehicle: saline with Tween-80
[7] = endpoint: mean survival time, dose: 400.0 mg/kg/injection, schedule: Q01DX009 (ip), vehicle: saline with Tween-80
[8] = endpoint: mean survival time, dose: 100.0 mg/kg/injection, schedule: Q01DX001 (ip), vehicle: saline with Tween-80
[9] = endpoint: mean survival time, dose: 200.0 mg/kg/injection, schedule: Q01DX001 (ip), vehicle: saline with Tween-80

Measured: T/C

Clc1ccc(COCc2ccccc2Cn2ccnc2)cc1
inactive: [1] 98 % of control | [2] 104 % of control | [3] 96 % of control and 105 % of control

Cn1cccc1-c1cccnc1
inactive: endpoint: mean survival time, dose: 75.0 mg/kg/injection, schedule: Q01DX001 (ip), vehicle: saline 97 % of control | endpoint: mean survival time, dose: 150.0 mg/kg/injection, schedule: Q01DX001 (ip), vehicle: saline 100 % of control

O=C1CCC2(c3ccccc3)C1C2c1ccccc1 (stereo unspecified)
inactive: [4] 110 % of control | [5] 112 % of control | endpoint: mean survival time, dose: 400.0 mg/kg/injection, schedule: Q04DX003 (ip), vehicle: saline with Tween-80 101 % of control

O=C(CC(O)(C(F)(F)F)C(F)(F)F)c1ccc(Cl)cc1
inactive: endpoint: mean survival time, dose: 50.0 mg/kg/injection, schedule: Q01DX009 (ip), vehicle: other 103 % of control | endpoint: mean survival time, dose: 100.0 mg/kg/injection, schedule: Q01DX009 (ip), vehicle: other 103 % of control | [4] 107 % of control | endpoint: mean survival time, dose: 200.0 mg/kg/injection, schedule: Q01DX009 (ip), vehicle: other 87 % of control | [5] 107 % of control

Cc1c2c(ccc3ccccc32)c[n+]2ccccc12
inactive: endpoint: mean survival time, dose: 1.56 mg/kg/injection, schedule: Q01DX009 (ip), vehicle: saline 98 % of control and 100 % of control | endpoint: mean survival time, dose: 3.12 mg/kg/injection, schedule: Q01DX009 (ip), vehicle: saline 103 % of control and 106 % of control | endpoint: mean survival time, dose: 6.25 mg/kg/injection, schedule: Q01DX009 (ip), vehicle: saline 104 % of control and 105 % of control | endpoint: mean survival time, dose: 12.5 mg/kg/injection, schedule: Q01DX009 (ip), vehicle: saline 103 % of control and 108 % of control

CN(C)c1ccc2c(SCC(=O)OCC(=O)[C@@]3(O)CC[C@H]4[C@@H]5CCC6=CC(=O)C=C[C@]6(C)[C@H]5C(=O)C[C@@]43C)c3ccc(N(C)C)cc3nc2c1
inactive: endpoint: median survival time, dose: 25.0 mg/kg/injection, schedule: Q01DX009 (ip), vehicle: Klucel (hydroxypropylcellulose) (HPC) 117 % of control and 105 % of control | endpoint: median survival time, dose: 50.0 mg/kg/injection, schedule: Q01DX009 (ip), vehicle: Klucel (hydroxypropylcellulose) (HPC) 114 % of control and 116 % of control and 108 % of control | endpoint: median survival time, dose: 100.0 mg/kg/injection, schedule: Q01DX009 (ip), vehicle: Klucel (hydroxypropylcellulose) (HPC) 116 % of control and 118 % of control and 123 % of control | endpoint: median survival time, dose: 200.0 mg/kg/injection, schedule: Q01DX009 (ip), vehicle: Klucel (hydroxypropylcellulose) (HPC) 108 % of control | endpoint: median survival time, dose: 400.0 mg/kg/injection, schedule: Q01DX009 (ip), vehicle: Klucel (hydroxypropylcellulose) (HPC) 123 % of control

O=C(NC(CO)C(=O)OCc1ccccc1)OCc1ccccc1 (stereo unspecified)
inactive: [3] 107 % of control | [6] 96 % of control | [7] 91 % of control

CC(=O)Nc1ccc(C(=O)C=O)cc1
inactive: endpoint: mean survival time, dose: 6.25 mg/kg/injection, schedule: Q01DX009 (ip), vehicle: saline with Tween-80 103 % of control | endpoint: mean survival time, dose: 12.5 mg/kg/injection, schedule: Q01DX009 (ip), vehicle: saline with Tween-80 110 % of control | [1] 107 % of control | [2] 113 % of control | [3] 110 % of control | [6] 103 % of control

COc1ccccc1N=Nc1c(O)n(-c2ccccc2OC)c(=S)n(-c2ccc(I)cc2)c1=O
inactive: [8] 96 % of control | [9] 93 % of control | endpoint: mean survival time, dose: 400.0 mg/kg/injection, schedule: Q01DX001 (ip), vehicle: saline with Tween-80 95 % of control

[Cl][Pt+2][Cl].[NH-]C1CC1.[NH2-]
inactive: endpoint: mean survival time, dose: 0.39 mg/kg/injection, schedule: Q04DX003 (ip), vehicle: saline 101 % of control | endpoint: mean survival time, dose: 0.78 mg/kg/injection, schedule: Q04DX003 (ip), vehicle: saline 103 % of control and 104 % of control | endpoint: mean survival time, dose: 1.56 mg/kg/injection, schedule: Q04DX003 (ip), vehicle: saline 121 % of control and 108 % of control | endpoint: mean survival time, dose: 3.12 mg/kg/injection, schedule: Q04DX003 (ip), vehicle: saline with Tween-80 124 % of control

O=C1c2ccccc2C(=O)C1c1cc2ccccc2cn1
inactive: endpoint: mean survival time, dose: 50.0 mg/kg/injection, schedule: Q04DX002 (ip), vehicle: saline with Tween-80 91 % of control | [8] 87 % of control | endpoint: mean survival time, dose: 100.0 mg/kg/injection, schedule: Q04DX002 (ip), vehicle: saline with Tween-80 95 % of control | [9] 91 % of control | endpoint: mean survival time, dose: 200.0 mg/kg/injection, schedule: Q04DX002 (ip), vehicle: saline with Tween-80 91 % of control

COc1ccc(C(O)(c2ccc(OC)cc2)C(c2ccccc2)c2ccccc2)cc1
inactive: [3] 100 % of control | [6] 96 % of control | [7] 97 % of control
